Measured values taken from PubChem BioAssay (NCI).
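Five compound concentrations were applied to cells in 96-well plates for 48 hours; endpoints were derived by simple linear interpolation of the resulting dose-response curve. At the TGI there is no net growth.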

Tests used:
Assay in all cases: NCI tumour cell line growth inhibition, 48 h
[1] = tested on: SF-295 CNS
[2] = tested on: KM12 colon
[3] = tested on: OVCAR-3 ovarian
[4] = tested on: SF-268 CNS
[5] = tested on: OVCAR-8 ovarian
[6] = tested on: M14 melanoma
[7] = tested on: HCT-15 colon
[8] = tested on: OVCAR-4 ovarian
[9] = tested on: DU-145 prostate
[10] = tested on: SN12C renal
[11] = tested on: HOP-92 NSCLC
[12] = tested on: OVCAR-5 ovarian
[13] = tested on: CAKI-1 renal
[14] = tested on: SF-539 CNS
[15] = tested on: SK-MEL-28 melanoma
[16] = tested on: K-562 leukemia
[17] = tested on: PC-3 prostate
[18] = tested on: IGROV1 ovarian
[19] = tested on: ACHN renal
[20] = tested on: MCF7 breast
[21] = tested on: MDA-MB-231 breast
[22] = tested on: 786-0 renal
[23] = tested on: NCI-H23 lung
[24] = tested on: BT-549 breast
[25] = tested on: T-47D breast
[26] = tested on: HT29 colon
[27] = tested on: HL-60(TB) leukemia
[28] = tested on: NCI-H522 lung
[29] = tested on: NCI-H226 lung
[30] = tested on: UACC-257 melanoma
[31] = tested on: LOX IMVI melanoma
[32] = tested on: A498 renal
[33] = tested on: RPMI-8226 leukemia
[34] = tested on: COLO 205 colon
[35] = tested on: HS 578T breast
[36] = tested on: HCT-116 colon
[37] = tested on: U251 CNS
[38] = tested on: A549 NSCLC
[39] = tested on: MALME-3M melanoma
[40] = tested on: CCRF-CEM leukemia
[41] = tested on: EKVX NSCLC
[42] = tested on: UO-31 renal
[43] = tested on: SR leukemia
[44] = tested on: MOLT-4 leukemia
[45] = tested on: MDA-N
[46] = tested on: MDA-MB-435
[47] = tested on: SK-OV-3 ovarian
[48] = tested on: SK-MEL-2 melanoma
[49] = tested on: SNB-19 CNS
[50] = tested on: HOP-62 NSCLC
[51] = tested on: TK-10 renal
[52] = tested on: SW-620 colon
[53] = tested on: UACC-62 melanoma
[54] = tested on: NCI/ADR-RES ovarian
[55] = tested on: SK-MEL-5 melanoma
[56] = tested on: HCC-2998 colon
[57] = tested on: SNB-75 CNS
[58] = tested on: NCI-H460 lung

For CCOc1cc(C(c2c(O)c3ccccc3oc2=O)c2c(O)c3ccccc3oc2=O)ccc1OC, the TGI [1] was 41.7 µM, the TGI [2] was 36.5 µM and the TGI [3] was 33.3 µM. For the same compound, the TGI [4] was 38.8 µM, the TGI [5] was 42.4 µM and the TGI [6] was 38.9 µM. It also gave a TGI [7] of 47.6 µM, a TGI [8] of 34.1 µM and a TGI [9] of 37.6 µM. It also gave a TGI [10] of 40.3 µM, a TGI [11] of 32.8 µM and a TGI [12] of 40.1 µM. For the same compound, the TGI [13] was 30.5 µM, the TGI [14] was 42.6 µM and the TGI [15] was 72.2 µM. For the same compound, the TGI [16] was greater than 100 µM, the TGI [17] was 33.3 µM and the TGI [18] was 32.7 µM. The TGI [19] was 31.9 µM, the TGI [20] was 43.7 µM and the TGI [21] was 31.9 µM. The TGI [22] was 40.1 µM, the TGI [23] was 52.6 µM and the TGI [24] was 41.4 µM. For the same compound, the TGI [25] was 38.3 µM, the TGI [26] was 65.9 µM and the TGI [27] was 52.4 µM. It also gave a TGI [28] of 36.3 µM, a TGI [29] of 59.1 µM and a TGI [30] of 34.6 µM. For the same compound, the TGI [31] was 45.8 µM, the TGI [32] was 38.9 µM and the TGI [33] was 89.9 µM. The TGI [34] was 36.4 µM, the TGI [35] was 77.5 µM and the TGI [36] was 37.9 µM. For the same compound, the TGI [37] was 29.5 µM, the TGI [38] was greater than 100 µM and the TGI [39] was 34.8 µM. For the same compound, the TGI [40] was greater than 100 µM, the TGI [41] was 44.3 µM and the TGI [42] was 45.8 µM. For the same compound, the TGI [43] was greater than 100 µM, the TGI [44] was 98.9 µM and the TGI [45] was 36.6 µM. The TGI [46] was 32 µM, the TGI [47] was 32.9 µM and the TGI [48] was 42.2 µM. The TGI [49] was 61.8 µM, the TGI [50] was 39.9 µM and the TGI [51] was 32.1 µM. For the same compound, the TGI [52] was greater than 100 µM, the TGI [53] was 33.2 µM and the TGI [54] was 73.3 µM. The TGI [55] was 44.6 µM.

Work on CCOC(=O)c1nc2ccccc2nc1Nc1ccc(Cl)c(Cl)c1 yielded a TGI [2] greater than 100 µM, a TGI [3] greater than 100 µM and a TGI [4] greater than 100 µM. It also gave a TGI [5] greater than 100 µM, a TGI [6] greater than 100 µM and a TGI [7] greater than 100 µM. The TGI [8] was greater than 100 µM, the TGI [9] was greater than 100 µM and the TGI [10] was greater than 100 µM. The TGI [11] was 44.5 µM, the TGI [12] was greater than 100 µM and the TGI [13] was 70.9 µM. The TGI [14] was greater than 100 µM, the TGI [15] was greater than 100 µM and the TGI [16] was greater than 100 µM. The TGI [18] was greater than 100 µM, the TGI [19] was greater than 100 µM and the TGI [56] was greater than 100 µM. For the same compound, the TGI [20] was greater than 100 µM, the TGI [21] was greater than 100 µM and the TGI [22] was greater than 100 µM. The TGI [23] was greater than 100 µM, the TGI [24] was 49.5 µM and the TGI [25] was greater than 100 µM. For the same compound, the TGI [26] was greater than 100 µM, the TGI [27] was greater than 100 µM and the TGI [28] was greater than 100 µM. The TGI [33] was greater than 100 µM, the TGI [34] was greater than 100 µM and the TGI [35] was greater than 100 µM. The TGI [36] was greater than 100 µM, the TGI [57] was 68.4 µM and the TGI [37] was greater than 100 µM. It also gave a TGI [38] greater than 100 µM, a TGI [58] greater than 100 µM and a TGI [39] of 93.9 µM. The TGI [41] was greater than 100 µM, the TGI [42] was greater than 100 µM and the TGI [43] was greater than 100 µM. It also gave a TGI [44] greater than 100 µM, a TGI [45] greater than 100 µM and a TGI [46] greater than 100 µM. The TGI [47] was 47.1 µM, the TGI [48] was greater than 100 µM and the TGI [49] was greater than 100 µM. The TGI [50] was 63 µM, the TGI [51] was greater than 100 µM and the TGI [53] was 83.2 µM. It also gave a TGI [54] greater than 100 µM and a TGI [55] of 65.5 µM.
